A short description of data set [1]: Analysis of luciferase siRNA-encapsulated lipid nanoparticle (Production Example 1). The data set is classed as physicochemical. To be noted: for Rate of encapsulation / Average particle size: luc siRNA lipid nanoparticle; for siRNA concentration: luc siRNA lipid nanoparticle dispersion after dialysis and filtration; for Average particle size: cationic lipid:DPPC:cholesterol:GS-020=60:10.6:28:1.4, Z-average, dynamic light scattering. From the text: The particle size of the lipid particle (in the composition) can be measured by a known approach. For example, the particle size can be calculated as a Z-average particle size by the cumulant analysis of an autocorrelation function using a particle size measurement apparatus Zetasizer Nano ZS (Malvern Instruments) based on a dynamic light scattering measurement technique. The particle size (average particle size) of the lipid particle (in the composition) is, for example, 10 to 200 nm, preferably 60 to 170 nm.
The concentration and rate of encapsulation of the nucleic acid (e.g., siRNA or mRNA) in the composition of the present invention can be measured by a known approach. For example, the nucleic acid is fluorescently labeled using Quant-iT™ RiboGreen® (Invitrogen Corp.), and the fluorescence intensity can be measured to determine the concentration and the rate of encapsulation. The concentration of the nucleic acid in the composition can be calculated using a calibration curve prepared from aqueous nucleic acid solutions having known concentrations. The rate of encapsulation can be calculated on the basis of the difference in fluorescence intensity between the presence and absence of addition of Triton-X 100 (surfactant for disrupting the lipid particle). The concentration of the nucleic acid in the composition refers to the total concentration of a nucleic acid encapsulated in the lipid particle and an unencapsulated nucleic acid. The rate of encapsulation refers to the ratio of the nucleic acid encapsulated in the lipid particle to all nucleic acids in the composition.
A lipid mixture (cationic lipid:DPPC:cholesterol:GS-020=60:10.6:28:1.4, molar ratio) was dissolved in 90% of EtOH and 10% of a 25 mM acetate buffer solution (pH 4.0) to obtain a 7.4 mg/ml lipid solution. Luciferase (luc) siRNA (see Table 2) was dissolved in a 25 mM acetate buffer solution (pH 4.0) to obtain a 0.15 mg/ml nucleic acid solution. The obtained lipid solution and nucleic acid solution were mixed at a flow rate ratio of 1 ml/min:5 ml/min at room temperature using Asia microfluidic system (Syrris Ltd.) to obtain a dispersion containing a composition. The obtained dispersion was dialyzed against water at room temperature for 1 hour and against PBS at room temperature for 18 hours using Slyde-A-Lyzer (molecular weight cutoff: 20 K, Thermo Fischer Scientific Inc.). Subsequently, the dialysate was filtered through a 0.2 μm syringe filter (Iwaki) and preserved at 4° C. Hereinafter, the particle size of the lipid particle in the composition was calculated as a Z-average particle size by the cumulant analysis of an autocorrelation function using a particle size measurement apparatus Zetasizer Nano ZS (Malvern Instruments) based on a dynamic light scattering measurement technique.

The subject of data set [2] is human liver cancer-derived cell line Hep3B stably expressing luciferase. Put plainly: Transfection of cultured cell with siRNA (luciferase knockdown). The class given is cell-based. The conditions noted are these: lipid particle containing luciferase siRNA, 48 hours after addition, read-out: siRNA concentration necessary for 50% knockdown. The procedure: A human liver cancer-derived cell line Hep3B stably expressing luciferase was cultured at a cell density of 6000 cells/well in a 96-well plate. 24 hours later, 10 μl of the lipid particle containing luciferase siRNA was added to the medium. 48 hours after the addition of siRNA, the amount of decrease in expression (knockdown) of luciferase was measured using Picagene LT2.0 kit (Toyobo Co., Ltd.).

Turning to `CCCCCCCC(=O)OCC(COC(=O)CCCCCCC)(COC(=O)CCCN(C)C)COC(=O)C(CCCCCC)CCCCCC` [Example 2, 2-(((4-(Dimethylamino)butanoyl)oxy)methyl)-2-(((2-hexyloctanoyl)oxy)methyl)propane-1,3-diyl dioctanoate], in data set [1], the Rate of encapsulation is listed as 96%, the siRNA concentration is 415 µg/mL and the Average particle size turned out to be 71 nm. Moreover, the IC50 in data set [2] amounted to 14 nM.

In data set [1], `CCCCCCCC(=O)OCC(COC(=O)CCCCCCC)(COC(=O)CCCCN(C)C)COC(=O)C(CCCCCC)CCCCCC` [Example 3, 2-(((5-(Dimethylamino)pentanoyl)oxy)methyl)-2-(((2-hexyloctanoyl)oxy)methyl)propane-1,3-diyl dioctanoate] returned a Rate of encapsulation of 96%, a siRNA concentration of 445 µg/mL and an Average particle size of 81 nm. The IC50 in data set [2] was found to be 55 nM.

On to `CCCCCCC(=O)OCC(COC(=O)CCCN(C)C)(COC(=O)C(CCCCC)CCCCC)COC(=O)C(CCCCC)CCCCC` [Example 4, 2-(((4-(Dimethylamino)butanoyl)oxy)methyl)-2-((heptanoyloxy)methyl)propane-1,3-diyl bis(2-pentylheptanoate)], for which, in data set [1], the Rate of encapsulation is given as 91%, the siRNA concentration is 121 µg/mL and the Average particle size stood at 73 nm. Moreover, in data set [2], the IC50 was 190 nM.

On to `CCCCCCC(=O)OCC(COC(=O)CCCCN(C)C)(COC(=O)C(CCCCC)CCCCC)COC(=O)C(CCCCC)CCCCC` [Example 5, 2-(((5-(Dimethylamino)pentanoyl)oxy)methyl)-2-((heptanoyloxy)methyl)propane-1,3-diyl bis(2-pentylheptanoate)], for which, in data set [1], the Rate of encapsulation is reported as 96%, the siRNA concentration came out at 120 µg/mL and the Average particle size is 83 nm. In addition, the IC50 in data set [2] amounted to 28 nM.

In data set [1], `CCCCCCCC(=O)OCC(COC(=O)CCCN(C)C)(COC(=O)C(CCCCCC)CCCCCC)COC(=O)C(CCCCCC)CCCCCC` [Example 6, 2-(((4-(Dimethylamino)butanoyl)oxy)methyl)-2-((octanoyloxy)methyl)propane-1,3-diyl bis(2-hexyloctanoate)] had a Rate of encapsulation of 93%, a siRNA concentration of 389 µg/mL and an Average particle size of 77 nm. The IC50 in data set [2] is 41 nM.

In data set [1], `CCCCCCCC(=O)OCC(COC(=O)CCCCN(C)C)(COC(=O)C(CCCCCC)CCCCCC)COC(=O)C(CCCCCC)CCCCCC` [Example 7, 2-(((5-(Dimethylamino)pentanoyl)oxy)methyl)-2-((octanoyloxy)methyl)propane-1,3-diyl bis(2-hexyloctanoate)] showed a Rate of encapsulation of 97%, a siRNA concentration of 376 µg/mL and an Average particle size of 73 nm. Also, the IC50 in data set [2] worked out at 1.2 nM.

Values taken from patent US12479791B2, “Cationic lipid” (Takeda Pharmaceutical Company Limited, priority 2018, dated 2025).
